Data reported in ChEMBL document CHEMBL4196232, “A Series of Indole-Thiazole Derivatives Act as GPER Agonists and Inhibit Breast Cancer Cell Growth” (ACS Med Chem Lett, 2018).
Active and inactive are the calls of the source. The calls are words filed in the database; no cut-off is given here.

Key:
[1] = biological target: T1, G-protein coupled estrogen receptor 1 (Homo sapiens, UniProt Q99527); assay: Agonist activity at GPER (unknown origin) expressed in human HL60 cells assessed as increase in cAMP accumulation in presence of IBMX after 15 mins by HTRF assay; format: functional, cell-based
T1 sequence (Q99527 whole entry): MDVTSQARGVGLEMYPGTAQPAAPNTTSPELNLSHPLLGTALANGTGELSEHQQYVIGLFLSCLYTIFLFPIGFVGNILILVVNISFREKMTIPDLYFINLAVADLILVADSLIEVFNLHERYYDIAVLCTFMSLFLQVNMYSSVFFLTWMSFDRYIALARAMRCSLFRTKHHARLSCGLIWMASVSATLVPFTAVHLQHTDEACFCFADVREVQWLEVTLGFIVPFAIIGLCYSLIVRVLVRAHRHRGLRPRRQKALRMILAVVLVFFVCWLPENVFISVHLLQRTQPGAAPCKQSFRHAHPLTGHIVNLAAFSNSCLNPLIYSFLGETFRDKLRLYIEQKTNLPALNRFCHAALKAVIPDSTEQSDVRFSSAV

SK-BR-3 [2] = assay: Cytotoxicity against human SKBR3 cells assessed as decrease in cell viability at 1 uM after 72 hrs in presence of GPER agonist E2 by MTS assay; format: functional, cell-based
[3] = biological target: T2, Estrogen receptor (Homo sapiens) (UniProt P03372); assay: Displacement of fluoromone from recombinant human full length untagged estrogen receptor alpha expressed in insect cells at 1 uM after 2 hrs by fluorescence polarization assay
T2 sequence (whole entry): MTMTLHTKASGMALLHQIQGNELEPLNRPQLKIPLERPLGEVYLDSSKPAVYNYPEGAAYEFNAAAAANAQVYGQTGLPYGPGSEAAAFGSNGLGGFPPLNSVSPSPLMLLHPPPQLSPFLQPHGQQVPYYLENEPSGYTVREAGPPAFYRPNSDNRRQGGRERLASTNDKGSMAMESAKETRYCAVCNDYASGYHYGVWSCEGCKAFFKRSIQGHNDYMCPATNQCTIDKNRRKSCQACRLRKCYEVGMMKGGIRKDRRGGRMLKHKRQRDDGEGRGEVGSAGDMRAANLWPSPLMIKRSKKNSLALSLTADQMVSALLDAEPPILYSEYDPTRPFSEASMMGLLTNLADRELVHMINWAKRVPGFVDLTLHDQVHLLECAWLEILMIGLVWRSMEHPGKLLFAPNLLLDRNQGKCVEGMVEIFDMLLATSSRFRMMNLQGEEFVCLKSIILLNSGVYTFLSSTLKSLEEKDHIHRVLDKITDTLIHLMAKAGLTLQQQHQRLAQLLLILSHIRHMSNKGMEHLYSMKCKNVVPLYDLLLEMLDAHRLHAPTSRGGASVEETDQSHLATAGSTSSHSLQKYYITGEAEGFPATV

[4] = biological target: Estrogen receptor beta (Homo sapiens) (UniProt Q92731); assay: Displacement of fluoromone from recombinant human full length untagged estrogen receptor beta expressed in insect cells at 1 uM after 2 hrs by fluorescence polarization assay
Estrogen receptor beta (Homo sapiens), sequence (Q92731 whole entry): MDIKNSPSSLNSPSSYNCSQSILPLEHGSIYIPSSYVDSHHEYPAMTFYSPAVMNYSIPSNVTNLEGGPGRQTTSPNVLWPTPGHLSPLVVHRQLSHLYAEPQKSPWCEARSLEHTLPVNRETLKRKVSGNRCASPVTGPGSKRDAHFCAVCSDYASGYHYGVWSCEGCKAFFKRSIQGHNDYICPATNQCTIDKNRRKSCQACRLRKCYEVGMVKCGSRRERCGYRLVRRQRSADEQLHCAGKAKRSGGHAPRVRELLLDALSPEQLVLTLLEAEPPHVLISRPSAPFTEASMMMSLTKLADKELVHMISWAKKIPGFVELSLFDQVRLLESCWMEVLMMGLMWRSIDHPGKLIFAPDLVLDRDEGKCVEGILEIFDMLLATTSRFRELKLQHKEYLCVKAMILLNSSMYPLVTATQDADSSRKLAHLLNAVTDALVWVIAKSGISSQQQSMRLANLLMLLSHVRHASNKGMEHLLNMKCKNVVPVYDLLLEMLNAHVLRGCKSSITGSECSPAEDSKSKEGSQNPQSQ

[5] = biological target: T2, Estrogen receptor (Homo sapiens); assay: Displacement of fluoromone from recombinant human full length untagged estrogen receptor alpha expressed in insect cells at
[6] = biological target: Estrogen receptor beta (Homo sapiens) (UniProt Q92731); assay: Displacement of fluoromone from recombinant human full length untagged estrogen receptor beta expressed in insect cells at
SK-BR-3 [7] = assay: Cytotoxicity against human SKBR3 cells assessed as decrease in cell viability at 1 uM after 72 hrs in absence of GPER agonist E2 by MTS assay; format: functional, cell-based
MDA-MB-231 [8] = assay: Cytotoxicity against human MDA-MB-231 cells assessed as decrease in cell viability at 1 uM after 72 hrs in presence of GPER agonist E2 by MTS assay; format: functional, cell-based
MDA-MB-231 [9] = assay: Cytotoxicity against human MDA-MB-231 cells assessed as decrease in cell viability at 1 uM after 72 hrs in absence of GPER agonist E2 by MTS assay; format: functional, cell-based
MCF7 = assay: Cytotoxicity against human MCF7 cells assessed as decrease in cell viability at 1 uM after 72 hrs in presence of GPER agonist E2 by MTS assay; format: functional, cell-based
[10] = biological target: T1, G-protein coupled estrogen receptor 1; assay: Antagonist activity at GPER (unknown origin) expressed in human HL60 cells assessed as inhibition of G-1-induced cAMP accumulation preincubated for 20 mins followed by G-1 addition measured after 10 mins by HTRF assay; format: functional, cell-based
HL-60 = assay: Decrease in cAMP accumulation in human HL60 cells harboring GPER siRNA at 100 nM after 48 hrs by HTRF assay; format: functional, cell-based
[11] = biological target: Estrogen receptor beta (Homo sapiens) (UniProt Q92731); assay: Displacement of fluoromone from recombinant human full length untagged estrogen receptor beta expressed in insect cells after 2 hrs by fluorescence polarization assay

| inhibition [10] | Structure (SMILES) | Activity (SK-BR-3 [2]) | Activity (SK-BR-3 [7]) | Activity (MDA-MB-231 [8]) | Activity (MDA-MB-231 [9]) | Activity (MCF7) | further results |
| --- | --- | --- | --- | --- | --- | --- | --- |
| – | CCc1nc(NC(=O)c2[nH]c3ccc(Br)cc3c2Cl)sc1C | inactive | inactive | inactive | inactive | Active | EC50 [1]: 480 nM; Activity [3]: Active; Activity [4]: Active; Activity [5]: inactive; Activity [6]: inactive |
| inactive | N#Cc1ccc(Cc2cnc(NC(=O)c3cc4cc(F)ccc4[nH]3)s2)cc1 | – | – | – | – | – | – |
| – | CC(=O)c1ccc2c(c1)[C@@H]1C=CC[C@@H]1[C@H](c1cc3c(cc1Br)OCO3)N2 | Active | Active | Active | Active | Active | Activity (HL-60): inactive; Activity [11]: inactive |
| – | O=C(Nc1ncc(Cc2ccc(F)cc2F)s1)c1[nH]c2ccccc2c1Cl | Active | Active | Active | Active | Active | EC50 [1]: 1620 nM; Activity (HL-60): inactive; Activity [11]: inactive; Activity [5]: inactive; Activity [6]: inactive |
| inactive | O=C(Nc1nc2c(s1)CCC2)c1cc2cc(F)ccc2[nH]1 | – | – | – | – | – | Activity [1]: inactive |
| inactive | CC(C)c1csc(NC(=O)c2cc3c(Cl)cccc3[nH]2)n1 | – | – | – | – | – | Activity [1]: inactive |
| – | Brc1cc2c(cc1[C@@H]1Nc3ccccc3[C@@H]3C=CC[C@@H]31)OCO2 | – | – | inactive | inactive | Active | – |
| inactive | CSc1ncc(Cl)c(C(=O)Nc2ncc(Cc3ccc(F)cc3)s2)n1 | – | – | – | – | – | – |
| inactive | O=C(Nc1nc2c(s1)CCC2)c1cc2cc(Br)ccc2[nH]1 | – | – | – | – | – | Activity [1]: inactive |
| inactive | O=C(Nc1ncc(Cc2ccc(F)cc2)s1)c1cc2cc(F)ccc2[nH]1 | inactive | inactive | inactive | inactive | – | EC50 [1]: 20 nM; Activity [3]: Active; Activity [4]: Active |
| inactive | COc1cc(OC)c2[nH]c(C(=O)Nc3ncc(Cc4ccccc4)s3)cc2c1 | – | – | – | – | – | – |
